# Reference: PubChem BioAssay (NCI)
#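 Growth conditions: 96-well plates. Treatment: test compound, 48 hours, 5 concentrations. Analysis: linear interpolation between bracketing concentrations; unreached endpoints set to highest concentration. The concentration for full growth arrest is given as TGI.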
# Tests used:
# Assay in all cases: NCI-60 cell line screen, 48 h
# MOLT-4 leukemia = test system: MOLT-4 leukemia
# MDA-N = test system: MDA-N
# SF-268 CNS = test system: SF-268 CNS
# SNB-19 CNS = test system: SNB-19 CNS
# LOX IMVI melanoma = test system: LOX IMVI melanoma
# ACHN renal = test system: ACHN renal
# SW-620 colon = test system: SW-620 colon
# MDA-MB-435 = test system: MDA-MB-435
# SNB-75 CNS = test system: SNB-75 CNS
# SK-MEL-5 melanoma = test system: SK-MEL-5 melanoma
# HOP-92 NSCLC = test system: HOP-92 NSCLC
# UACC-257 melanoma = test system: UACC-257 melanoma
# NCI-H460 lung = test system: NCI-H460 lung
# HOP-62 NSCLC = test system: HOP-62 NSCLC
# HL-60(TB) leukemia = test system: HL-60(TB) leukemia
# K-562 leukemia = test system: K-562 leukemia
# TK-10 renal = test system: TK-10 renal
# SF-539 CNS = test system: SF-539 CNS
# SR leukemia = test system: SR leukemia
# NCI-H23 lung = test system: NCI-H23 lung
# MALME-3M melanoma = test system: MALME-3M melanoma
# NCI/ADR-RES ovarian = test system: NCI/ADR-RES ovarian
# COLO 205 colon = test system: COLO 205 colon
# RPMI-8226 leukemia = test system: RPMI-8226 leukemia
# OVCAR-8 ovarian = test system: OVCAR-8 ovarian
# HCT-15 colon = test system: HCT-15 colon
# NCI-H226 lung = test system: NCI-H226 lung
# HT29 colon = test system: HT29 colon
# HS 578T breast = test system: HS 578T breast
# 786-0 renal = test system: 786-0 renal
# EKVX NSCLC = test system: EKVX NSCLC
# CAKI-1 renal = test system: CAKI-1 renal
# KM12 colon = test system: KM12 colon
# SF-295 CNS = test system: SF-295 CNS
# OVCAR-5 ovarian = test system: OVCAR-5 ovarian
# SK-MEL-28 melanoma = test system: SK-MEL-28 melanoma
# SK-MEL-2 melanoma = test system: SK-MEL-2 melanoma
# M14 melanoma = test system: M14 melanoma
# UO-31 renal = test system: UO-31 renal
# CCRF-CEM leukemia = test system: CCRF-CEM leukemia
# OVCAR-3 ovarian = test system: OVCAR-3 ovarian
# RXF 393 renal = test system: RXF 393 renal
# A498 renal = test system: A498 renal
# HCC-2998 colon = test system: HCC-2998 colon
# BT-549 breast = test system: BT-549 breast
# A549 NSCLC = test system: A549 NSCLC
# OVCAR-4 ovarian = test system: OVCAR-4 ovarian
# UACC-62 melanoma = test system: UACC-62 melanoma
# PC-3 prostate = test system: PC-3 prostate
# HCT-116 colon = test system: HCT-116 colon
# NCI-H522 lung = test system: NCI-H522 lung
# IGROV1 ovarian = test system: IGROV1 ovarian
# U251 CNS = test system: U251 CNS
# T-47D breast = test system: T-47D breast
# MDA-MB-231 breast = test system: MDA-MB-231 breast
# SN12C renal = test system: SN12C renal
# DU-145 prostate = test system: DU-145 prostate
# MCF7 breast = test system: MCF7 breast
# SK-OV-3 ovarian = test system: SK-OV-3 ovarian
smiles,measurement,setting,value
Nc1ncnn2c(C3OC(CO)C(O)C3O)ccc12 (centres undefined),TGI,MOLT-4 leukemia,0.455 µM
same,TGI,MDA-N,0.693 µM
same,TGI,SF-268 CNS,1.99 µM
same,TGI,SNB-19 CNS,25.4 µM
same,TGI,LOX IMVI melanoma,0.0463 µM
same,TGI,ACHN renal,0.645 µM
same,TGI,SW-620 colon,35.1 µM
same,TGI,MDA-MB-435,376 nM
same,TGI,SNB-75 CNS,0.866 µM
same,TGI,SK-MEL-5 melanoma,0.527 µM
same,TGI,HOP-92 NSCLC,0.431 µM
same,TGI,UACC-257 melanoma,0.417 µM
same,TGI,NCI-H460 lung,0.918 µM
same,TGI,HOP-62 NSCLC,1.48 µM
same,TGI,HL-60(TB) leukemia,0.328 µM
same,TGI,K-562 leukemia,0.569 µM
same,TGI,TK-10 renal,0.682 µM
same,TGI,SF-539 CNS,0.403 µM
same,TGI,SR leukemia,0.837 µM
same,TGI,NCI-H23 lung,0.474 µM
same,TGI,MALME-3M melanoma,285 nM
same,TGI,NCI/ADR-RES ovarian,2.27 µM
same,TGI,COLO 205 colon,0.762 µM
same,TGI,RPMI-8226 leukemia,0.467 µM
same,TGI,OVCAR-8 ovarian,0.746 µM
same,TGI,HCT-15 colon,0.771 µM
same,TGI,NCI-H226 lung,0.866 µM
same,TGI,HT29 colon,1.45 µM
same,TGI,HS 578T breast,0.275 µM
same,TGI,786-0 renal,0.807 µM
same,TGI,EKVX NSCLC,4.23 µM
same,TGI,CAKI-1 renal,0.486 µM
same,TGI,KM12 colon,677 nM
same,TGI,SF-295 CNS,3.01 µM
same,TGI,OVCAR-5 ovarian,4.54 µM
same,TGI,SK-MEL-28 melanoma,0.592 µM
same,TGI,SK-MEL-2 melanoma,0.362 µM
same,TGI,M14 melanoma,0.413 µM
same,TGI,UO-31 renal,0.494 µM
same,TGI,CCRF-CEM leukemia,0.627 µM
same,TGI,OVCAR-3 ovarian,0.52 µM
same,TGI,RXF 393 renal,0.667 µM
same,TGI,A498 renal,539 nM
same,TGI,HCC-2998 colon,2710 nM
same,TGI,BT-549 breast,0.789 µM
same,TGI,A549 NSCLC,3.14 µM
same,TGI,OVCAR-4 ovarian,582 nM
same,TGI,UACC-62 melanoma,0.358 µM
same,TGI,PC-3 prostate,0.762 µM
same,TGI,HCT-116 colon,0.151 µM
same,TGI,NCI-H522 lung,1.97 µM
same,TGI,IGROV1 ovarian,0.562 µM
same,TGI,U251 CNS,4.14 µM
same,TGI,T-47D breast,6.93 µM
same,TGI,MDA-MB-231 breast,1.11 µM
same,TGI,SN12C renal,2.7 µM
same,TGI,DU-145 prostate,0.74 µM
O=C(O)C(/C=C/c1ccccc1)c1ccccc1 (centres undefined),TGI,MOLT-4 leukemia,> 100 µM
same,TGI,MDA-N,> 100 µM
same,TGI,SF-268 CNS,> 100 µM
same,TGI,SNB-19 CNS,> 100 µM
same,TGI,LOX IMVI melanoma,> 100 µM
same,TGI,ACHN renal,> 100 µM
same,TGI,SW-620 colon,> 100 µM
same,TGI,SNB-75 CNS,> 100 µM
same,TGI,SK-MEL-5 melanoma,> 100 µM
same,TGI,HOP-92 NSCLC,> 100 µM
same,TGI,UACC-257 melanoma,> 100 µM
same,TGI,NCI-H460 lung,> 100 µM
same,TGI,HOP-62 NSCLC,> 100 µM
same,TGI,HL-60(TB) leukemia,75.1 µM
same,TGI,K-562 leukemia,> 100 µM
same,TGI,TK-10 renal,> 100 µM
same,TGI,SF-539 CNS,> 100 µM
same,TGI,SR leukemia,> 100 µM
same,TGI,NCI-H23 lung,> 100 µM
same,TGI,MALME-3M melanoma,> 100000 nM
same,TGI,NCI/ADR-RES ovarian,> 100 µM
same,TGI,COLO 205 colon,> 100 µM
same,TGI,RPMI-8226 leukemia,> 100 µM
same,TGI,OVCAR-8 ovarian,> 100 µM
same,TGI,HCT-15 colon,> 100 µM
same,TGI,NCI-H226 lung,> 100 µM
same,TGI,HT29 colon,> 100 µM
same,TGI,HS 578T breast,> 100 µM
same,TGI,786-0 renal,> 100 µM
same,TGI,EKVX NSCLC,> 100 µM
same,TGI,SF-295 CNS,> 100 µM
same,TGI,MCF7 breast,> 100 µM
same,TGI,OVCAR-5 ovarian,> 100 µM
same,TGI,SK-MEL-28 melanoma,> 100 µM
same,TGI,SK-MEL-2 melanoma,> 100 µM
same,TGI,M14 melanoma,> 100 µM
same,TGI,UO-31 renal,> 100 µM
same,TGI,CCRF-CEM leukemia,> 100 µM
same,TGI,OVCAR-3 ovarian,> 100 µM
same,TGI,RXF 393 renal,> 100 µM
same,TGI,A498 renal,> 100000 nM
same,TGI,BT-549 breast,> 100 µM
same,TGI,A549 NSCLC,> 100 µM
same,TGI,UACC-62 melanoma,> 100 µM
same,TGI,PC-3 prostate,> 100 µM
same,TGI,HCT-116 colon,> 100 µM
same,TGI,NCI-H522 lung,> 100 µM
same,TGI,IGROV1 ovarian,> 100 µM
same,TGI,U251 CNS,> 100 µM
same,TGI,T-47D breast,> 100 µM
same,TGI,SK-OV-3 ovarian,> 100 µM
same,TGI,MDA-MB-231 breast,> 100 µM
same,TGI,SN12C renal,> 100 µM
same,TGI,DU-145 prostate,> 100 µM
O=c1oc2ccc3ccccc3c2cc1-c1cn2ccccc2n1,TGI,MOLT-4 leukemia,> 100 µM
same,TGI,MDA-N,> 100 µM
same,TGI,SF-268 CNS,> 100 µM
same,TGI,LOX IMVI melanoma,> 100 µM
same,TGI,ACHN renal,94.2 µM
same,TGI,SW-620 colon,> 100 µM
same,TGI,MDA-MB-435,> 100000 nM
same,TGI,SNB-75 CNS,> 100 µM
same,TGI,SK-MEL-5 melanoma,> 100 µM
same,TGI,HOP-92 NSCLC,> 100 µM
same,TGI,UACC-257 melanoma,> 100 µM
same,TGI,NCI-H460 lung,> 100 µM
same,TGI,HOP-62 NSCLC,> 100 µM
same,TGI,HL-60(TB) leukemia,> 100 µM
same,TGI,K-562 leukemia,> 100 µM
same,TGI,TK-10 renal,> 100 µM
same,TGI,SF-539 CNS,> 100 µM
same,TGI,SR leukemia,> 100 µM
same,TGI,NCI-H23 lung,> 100 µM
same,TGI,NCI/ADR-RES ovarian,> 100 µM
same,TGI,COLO 205 colon,> 100 µM
same,TGI,RPMI-8226 leukemia,> 100 µM
same,TGI,OVCAR-8 ovarian,> 100 µM
same,TGI,HCT-15 colon,> 100 µM
same,TGI,NCI-H226 lung,> 100 µM
same,TGI,HT29 colon,77.5 µM
same,TGI,HS 578T breast,> 100 µM
same,TGI,786-0 renal,> 100 µM
same,TGI,EKVX NSCLC,> 100 µM
same,TGI,CAKI-1 renal,75.1 µM
same,TGI,KM12 colon,> 100000 nM
same,TGI,SF-295 CNS,> 100 µM
same,TGI,SK-MEL-28 melanoma,> 100 µM
same,TGI,SK-MEL-2 melanoma,> 100 µM
same,TGI,M14 melanoma,> 100 µM
same,TGI,UO-31 renal,> 100 µM
same,TGI,CCRF-CEM leukemia,> 100 µM
same,TGI,OVCAR-3 ovarian,> 100 µM
same,TGI,RXF 393 renal,> 100 µM
same,TGI,HCC-2998 colon,> 100000 nM
same,TGI,BT-549 breast,> 100 µM
same,TGI,A549 NSCLC,> 100 µM
same,TGI,UACC-62 melanoma,> 100 µM
same,TGI,PC-3 prostate,> 100 µM
same,TGI,HCT-116 colon,> 100 µM
same,TGI,NCI-H522 lung,> 100 µM
same,TGI,IGROV1 ovarian,> 100 µM
same,TGI,U251 CNS,> 100 µM
same,TGI,T-47D breast,> 100 µM
same,TGI,SK-OV-3 ovarian,> 100 µM
same,TGI,MDA-MB-231 breast,> 100 µM
same,TGI,SN12C renal,> 100 µM
same,TGI,DU-145 prostate,> 100 µM
